In US10759816B2, “Heterocyclic compounds as RSV inhibitors” (Enanta Pharmaceuticals, Inc., priority 2016, dated 2020):

Each molecule was assayed on genotype A, "Long" strain RSV (assay: RSV-A in vitro cytoprotection assay in HEp-2 cells (ATPlite readout of cell viability)). Conditions: HEp-2 cells, genotype A “Long” strain RSV, cytoprotection; read-out: Human RSV-A (“Long” strain) EC50.
Type: cell-based, Human respiratory syncytial virus
Procedure, shortened: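 HEp-2 cells (8,000/well) given 2-fold compound dilutions in duplicate, then infected with RSV-A Long strain stock; viability read by ATPlite luminescence after 4 days. EC50 derived from cytoprotection; cytotoxicity measured on parallel uninfected plate.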

| Structure (SMILES) | EC50 [nM] |
| --- | --- |
| O=C(NC1CC1)c1cc2c(s1)-c1ccccc1N(C(=O)c1cccc(-c3cnn(C4CCOCC4)c3)n1)CC2 [Example 150] | > 800 |

Same assay, conditions: human respiratory syncytial virus, HEp-2, HEp-2 cells, genotype A “Long” strain RSV, cytoprotection; read-out: Human RSV-A (“Long” strain) EC50

| Structure (SMILES) | EC50 [nM] |
| --- | --- |
| COCC(C)(C)CNc1cccc(C(=O)N2CCc3cc(C(=O)Nc4c(C)cccc4F)sc3-c3ccccc32)n1 [Example 421] | < 400 |
| COCCNc1cccc(C(=O)N2CCc3cc(C(=O)NC4CC4)sc3-c3ccccc32)n1 [Example 33] | 400 to 800 |
| Cc1cccc(F)c1NC(=O)c1cc2c(s1)-c1ccccc1N(C(=O)c1cccc(-c3c[nH]nc3N3CCOCC3)n1)CC2 [Example 211] | > 800 |
| Cc1cccc(F)c1NC(=O)c1cc2c(s1)-c1ccccc1N(C(=O)c1cccc(N3CCCN(S(=O)(=O)c4ccccc4)CC3)n1)CC2 [Example 386] | < 400 |
| Cc1cccc(F)c1NC(=O)c1cc2c(s1)-c1ccccc1N(C(=O)c1cccc(N3C[C@H]4C[C@@H]3CO4)n1)CC2 [Example 429] | < 400 |
| O=C(NC1CC1)c1cc2c(s1)-c1ccccc1N(C(=O)c1cccc(-c3cnc(N4CCOCC4)s3)n1)CC2 [Example 161] | 400 to 800 |
| O=C(NC1CC1)c1cc2c(s1)-c1ccccc1N(C(=O)c1cccc(N3CCOc4cc(Br)ccc4C3)n1)CC2 [Example 281] | < 400 |
| Cc1cccc(F)c1NC(=O)c1cc2c(s1)-c1ccccc1N(C(=O)c1cccc(NCC3CCCS3(=O)=O)n1)CC2 (centres unmarked) [Example 462] | < 400 |
| O=C(NC1CC1)c1cc2c(s1)-c1ccccc1N(C(=O)c1cccc(C3=CCNCC3)n1)CC2 [Example 54] | > 800 |
| Cc1cccc(F)c1NC(=O)c1cc2c(s1)-c1ccccc1N(C(=O)c1cccc(-n3cc(C#N)cn3)n1)CC2 [Example 143] | > 800 |
| COc1ccc2c(c1)S(=O)(=O)CCN(c1cccc(C(=O)N3CCc4cc(C(=O)Nc5c(C)cccc5F)sc4-c4ccccc43)n1)C2 [Example 437] | < 400 |
| COc1ccccc1C(C)(C)Nc1cccc(C(=O)N2CCc3cc(C(=O)NC4CC4)sc3-c3ccccc32)n1 [Example 322] | > 800 |
| Cc1cc(-c2ccc(C(=O)N3CCc4cc(C(=O)Nc5c(C)cccc5F)sc4-c4ccccc43)cc2)n(S(C)(=O)=O)n1 [Example 271] | > 800 |
| CCS(=O)(=O)CCN(C)c1cccc(C(=O)N2CCc3cc(C(=O)Nc4c(C)cccc4F)sc3-c3ccccc32)n1 [Example 325] | < 400 |
| COc1cccc(CN(C)c2cccc(C(=O)N3CCc4cc(C(=O)NC5CC5)sc4-c4ccccc43)n2)c1 [Example 296] | > 800 |
| O=C(Nc1cc2c(s1)-c1ccccc1N(C(=O)c1cccc(N3CCOc4ccccc4C3)n1)CC2)c1ccccc1 [Example 313] | 400 to 800 |
| Cc1noc([C@H]2C[C@@H](O)CN2c2cccc(C(=O)N3CCc4cc(C(=O)Nc5c(C)cccc5F)sc4-c4ccccc43)n2)n1 [Example 496] | > 800 |
| O=C(Nc1cccc(=O)[nH]1)c1cc2c(s1)-c1ccccc1N(C(=O)c1cccc(N3CCOc4ccccc4C3)n1)CC2 [Example 304] | > 800 |
| O=C(NC1CC1)c1cc2c(s1)-c1ccccc1N(C(=O)c1cccc(N3CCOc4ccccc43)n1)CC2 [Example 319] | > 800 |
| Cc1cccc(F)c1NC(=O)c1cc2c(s1)-c1ccccc1N(C(=O)c1cccc(N3CCS(=O)(=O)c4ccccc4C3)n1)CC2 [Example 419] | < 400 |
| Cc1cccc(F)c1NC(=O)c1cc2c(s1)-c1ccccc1N(C(=O)c1cccc(NC(C)(C)c3ccccn3)n1)CC2 [Example 358] | < 400 |
| O=C(NC1CCOCC1)c1cc2c(s1)-c1ccccc1N(C(=O)c1cccc(N3CCOc4ccccc4C3)n1)CC2 [Example 307] | < 400 |

| Structure (SMILES) | EC50 [nM] |
| --- | --- |
| O=C(NC1CC1)c1cc2c(s1)-c1ccccc1N(C(=O)c1cccc(-c3cccc(C(=O)N4CCOCC4)c3)n1)CC2 [Example 69] | 400 to 800 |
| O=C(NC1CC1)c1cc2c(s1)-c1ccccc1N(C(=O)c1cccc(-c3cncc4ccccc34)n1)CC2 [Example 153] | > 800 |
| O=C(Nc1ccccc1)Nc1cc2c(s1)-c1ccccc1N(C(=O)c1cccc(N3CCOc4ccccc4C3)n1)CC2 [Example 311] | > 800 |
| O=C(NC1CC1)c1cc2c(s1)-c1ccccc1N(C(=O)c1cccc(N3CC4(CCOCC4)C3)n1)CC2 [Example 19] | > 800 |
| O=C(N[C@H]1CCOC1)c1cc2c(s1)-c1ccccc1N(C(=O)c1cccc(-c3c[nH]nc3C3CC3)n1)CC2 [Example 177] | < 400 |
| O=C(NC1CC1)c1cc2c(s1)-c1ccccc1N(C(=O)c1csc(N3CCOCC3)n1)CC2 [Example 12] | 400 to 800 |
| N[C@H]1CCN(c2cccc(C(=O)N3CCc4cc(C(=O)NC5CC5)sc4-c4ccccc43)n2)C1 [Example 37] | > 800 |
| Cc1cccc(F)c1NC(=O)c1cc2c(s1)-c1ccc(F)cc1N(C(=O)c1cccc(-c3c[nH]c4ncccc34)n1)CC2 [Example 173] | < 400 |
| COCCCN(C)c1cccc(C(=O)N2CCc3cc(C(=O)Nc4c(C)cccc4F)sc3-c3ccccc32)n1 [Example 334] | > 800 |
| Cc1ccncc1-c1cccc(C(=O)N2CCc3cc(C(=O)NC4CC4)sc3-c3ccccc32)n1 [Example 156] | > 800 |
| COCCN(CC(C)C)c1cccc(C(=O)N2CCc3cc(C(=O)Nc4c(C)cccc4F)sc3-c3ccccc32)n1 [Example 118] | < 400 |
| Cc1cnc(N2CC3(CCOC3)C2)c(NC(=O)c2ccc(C(=O)N3CCc4cc(C(=O)Nc5c(C)cccc5F)sc4-c4ccccc43)cc2)c1 [Example 140] | > 800 |
| O=C(NC1CC1)c1cc2c(s1)-c1ccccc1N(C(=O)c1cccc(-c3cccnc3N3CCCOCC3)n1)CC2 [Example 88] | 400 to 800 |
| COc1ccc(-c2cccc(C(=O)N3CCc4cc(C(=O)NC5CC5)sc4-c4ccccc43)n2)cc1 [Example 62] | 400 to 800 |
| COCCN(c1cccc(C(=O)N2CCc3cc(C(=O)Nc4c(C)cccc4F)sc3-c3ccccc32)n1)S(C)(=O)=O [Example 423] | > 800 |
| Cc1cccc(F)c1NC(=O)c1cc2c(s1)-c1cccc(F)c1N(C(=O)c1cccc(-c3c[nH]c4ncccc34)n1)CC2 [Example 259] | < 400 |
| Cc1cccc(F)c1NC(=O)c1cc2c(s1)-c1ccc(F)cc1N(C(=O)c1cccc(-c3c[nH]c4ncc(F)cc34)n1)CC2 [Example 169] | < 400 |
| Cn1ccc(-c2cccc(C(=O)N3CCc4cc(C(=O)NC5CC5)sc4-c4ccccc43)n2)cc1=O [Example 162] | > 800 |
| O=C(NC1CC1)c1cc2c(s1)-c1ccccc1N(C(=O)c1ccc(F)c(N3CCOCC3)n1)CC2 [Example 44] | 400 to 800 |
| Cc1cccc(F)c1NC(=O)c1cc2c(s1)-c1ccccc1N(C(=O)c1cccc(-c3ccn(C)n3)n1)CC2 [Example 235] | > 800 |
| O=C(NC1CC1)c1cc2c(s1)-c1ccccc1N(C(=O)c1cccc(-c3ccc(N4CCOCC4)cc3)n1)CC2 [Example 66] | 400 to 800 |
| Cc1cccc(F)c1NC(=O)c1cc2c(s1)-c1ccccc1N(C(=O)c1cccc(N3CCCN(S(C)(=O)=O)c4ccccc43)n1)CC2 [Example 377] | > 800 |

| Structure (SMILES) | EC50 [nM] |
| --- | --- |
| Cc1cccc(F)c1NC(=O)c1cc2c(s1)-c1ccccc1N(C(=O)c1cccc(-c3ccc4occc4c3)n1)CC2 [Example 193] | > 800 |
| COC[C@H]1CCCN1c1cccc(C(=O)N2CCc3cc(C(=O)Nc4c(C)cccc4F)sc3-c3ccc(F)cc32)n1 [Example 490] | < 400 |
| COC(C)(C)Cn1cnnc1-c1cccc(C(=O)N2CCc3cc(C(=O)NC4CC4)sc3-c3ccccc32)n1 [Example 125] | > 800 |
| O=C(NC1CC1)c1cc2c(s1)-c1ccccc1N(C(=O)c1cccc(-c3nncn3C3CC3)n1)CC2 [Example 126] | > 800 |
| Cc1cccc(F)c1NC(=O)c1cc2c(s1)-c1ccccc1N(C(=O)c1cccc(N(C)C3CCS(=O)(=O)C3)n1)CC2 (centres unmarked) [Example 439] | > 800 |
| Cc1cccc(F)c1NC(=O)c1cc2c(s1)-c1ccccc1N(C(=O)c1cccc(N3Cc4ccccc4OC(C)(C)C3)n1)CC2 [Example 332] | < 400 |
| Cc1cccc(F)c1NC(=O)c1cc2c(s1)-c1ccccc1N(C(=O)c1cccc(NCc3cccc(C(F)(F)F)n3)n1)CC2 [Example 357] | > 800 |
| O=C(N[C@@H]1CCOC1)c1cc2c(s1)-c1ccccc1N(C(=O)c1cccc(N3CCOc4ccccc4C3)n1)CC2 [Example 309] | < 400 |
| COc1ccc(-c2cccc(C(=O)N3CCc4cc(C(=O)NC5CC5)sc4-c4ccccc43)c2)cc1 [Example 5] | 400 to 800 |
| Cc1cccc(F)c1NC(=O)c1cc2c(s1)-c1ccccc1N(C(=O)c1cccc(N3CCCS(=O)(=O)c4ccccc43)n1)CC2 [Example 406] | 400 to 800 |
| Cc1cccc(F)c1NC(=O)c1cc2c(s1)-c1ccccc1N(C(=O)c1cccc(N(C)CCS(C)(=O)=O)n1)CC2 [Example 333] | < 400 |
| O=C(NC1CC1)c1cc2c(s1)-c1ccccc1N(C(=O)c1cccc(-c3ccnc(N4CCOCC4)c3)n1)CC2 [Example 85] | < 400 |
| COc1ccc(C(=O)N2CCc3cc(C(=O)NC4CC4)sc3-c3ccccc32)nc1N1CCCOCC1 [Example 40] | 400 to 800 |
| Cc1cccc(F)c1NC(=O)c1cc2c(s1)-c1ccccc1N(C(=O)c1cccc(NCc3cccc4ccccc34)n1)CC2 [Example 345] | > 800 |
| N#Cc1ccc(-c2cccc(C(=O)N3CCc4cc(C(=O)NC5CC5)sc4-c4ccccc43)n2)cn1 [Example 78] | 400 to 800 |
| Cc1cccc(F)c1NC(=O)c1cc2c(s1)-c1cccc(F)c1N(C(=O)c1cccc(N3CCOc4ccccc4C3)n1)CC2 [Example 504] | > 800 |
| O=C(NC1CC1)c1cc2c(s1)-c1ccccc1N(C(=O)c1cccc(N3CCOc4ccc(Cl)cc4C3)n1)CC2 [Example 279] | < 400 |
| Cc1cccc(F)c1NC(=O)c1cc2c(s1)-c1ccccc1N(C(=O)c1cccc(N3C[C@@H](NS(C)(=O)=O)C[C@@H]3C)n1)CC2 [Example 392] | 400 to 800 |
| Cc1cc(CNc2cccc(C(=O)N3CCc4cc(C(=O)Nc5c(C)cccc5F)sc4-c4ccccc43)n2)on1 [Example 349] | < 400 |
| Cc1cnc(N2CC3(CCOCC3)C2)c(NS(=O)(=O)c2ccc(C(=O)N3CCc4cc(C(=O)Nc5c(C)cccc5F)sc4-c4ccccc43)cc2)c1 [Example 133] | > 800 |
